# Values of other authors in publication PMC6151961 (Journal of Enzyme Inhibition and Medicinal Chemistry, 2018).
# Read-outs that look alike come from different tables or passages of the source.
# Molecular target: CA IX (Homo sapiens, UniProt Q16790)
# Details: cited from earlier work
# [1] = library compounds (IDs A…, B…), values equal log10 of Ki in nM, ref ChEMBL and BindingDB
# [2] = observed Ki of library compounds (IDs A…, B…), ref ChEMBL and BindingDB, read-out: Ki
# [3] = library compounds (IDs A…, B…), observed Ki towards CA IX, ref ChEMBL and BindingDB, read-out: Ki
# [4] = library compounds (IDs A..., B...), values equal log10 of Ki in nM, ref ChEMBL, BindingDB
# [5] = observed Ki of library compounds (IDs A..., B...), ref ChEMBL, BindingDB, read-out: Ki
# [6] = library compounds (IDs A…, B…) of Table S4, ref ChEMBL and BindingDB, read-out: Ki
# [7] = experimental pKi towards CA IX, library compounds, ref ChEMB database (ID A), BindingDB (ID B)
# [8] = observed Ki towards CA IX, library compounds, ref ChEMB database (ID A), BindingDB (ID B), read-out: Ki
Structure (SMILES),log10 of Ki in nM [1],log10 of Ki in nM,Ki (read-out: Ki) [µM],other results
CC1=CC(c2ccccc2)C=C(C)N1CCc1ccc(S(N)(=O)=O)cc1 [B0111],0.778,,,Ki [2]: 0.006 µM
CC(=O)OC[C@@H]1O[C@H](S(=O)(=O)Cc2cn(-c3ccc(S(N)(=O)=O)cc3)nn2)[C@@H](OC(C)=O)[C@H](OC(C)=O)[C@H]1OC(C)=O [B0149],,0.875,0.0075,
NS(=O)(=O)c1ccc(-n2cc(CS(=O)(=O)[C@@H]3O[C@@H](CO)[C@H](O)[C@@H](O)[C@H]3O)nn2)cc1 [B0162],,0.908,0.0081,
C[C@H](Nc1nc(NCc2ccc(S(N)(=O)=O)cc2)nc(N[C@@H](C)C(=O)O)n1)C(=O)O [B0173],,0.929,0.0085,
CC(=O)OC[C@@H]1O[C@@H](SCc2cn(-c3ccc(S(N)(=O)=O)cc3)nn2)[C@H](OC(C)=O)[C@@H](OC(C)=O)[C@@H]1OC(C)=O [B0180],,0.934,0.0086,
CC(=O)OC[C@@H]1O[C@@H](NS(N)(=O)=O)CC[C@H]1OC(C)=O [B0190],0.954,,,Ki [2]: 0.009 µM
NS(=O)(=O)c1ccc(CCNc2nc(N[C@@H](CO)C(=O)O)nc(N[C@H](CO)C(=O)O)n2)cc1 [B0192],,0.954,0.009,
Cn1nc(S(N)(=O)=O)s/c1=N/C(=O)c1c(F)c(F)cc(F)c1F [B0221],,1.021,0.0105,
COc1cc(/C=C\C(=O)OCCCCO[N+](=O)[O-])ccc1OC(=O)c1ccc(S(N)(=O)=O)cc1 [B0225],,1.041,0.011,
NS(=O)(=O)c1cc(-c2nnc(-c3ccccc3)s2)c(Cl)cc1Cl [B0246],1.146,,,Ki [3]: 0.014 µM
NS(=O)(=O)c1ccc(NC2=NC(=O)/C(=C\c3coc4ccccc4c3=O)S2)cc1 [B0247],1.146,,,Ki [3]: 0.014 µM
"CCCN(CCC)S(=O)(=O)c1ccc(C(=O)N[C@H](C)C(N)=O)cc1 [B0254, reference compound]",,,,"Ki (CA IX, library ligands, ref ChEMBL[43] and BindingDB[44], read-out: Ki): 0.015 µM; log10 of Ki in nM (CA IX, observed value, equals log of Ki in nM, ref ChEMBL[43] and BindingDB[44]): 1.176"
Cc1cc(C)o/c(=N\O)c1 [B0259],,,,log10 of Ki in nM [4]: 1.204; Ki [5]: 0.016 µM
Cc1ccc2nc(S)n(-c3ccc(S(N)(=O)=O)cc3)c(=O)c2c1 [B0260],1.204,,,Ki [6]: 0.016 µM
Cc1cc(C)c2nc(S)n(-c3ccc(S(N)(=O)=O)cc3)c(=O)c2c1 [B0272],,,,log10 of Ki in nM [4]: 1.255; Ki [5]: 0.018 µM
CCO[C@H]1Oc2ccccc2C(=O)[C@@H]1/C=N\c1ccc(S(=O)(=O)Nc2nccs2)cc1 [B0283],1.301,,,Ki [6]: 0.02 µM
COc1ccc(-c2nn(-c3ccc(S(N)(=O)=O)cc3)cc2/C=N/Nc2nc(-c3cc4cc(Br)ccc4oc3=O)cs2)cc1 [B0286],1.301,,,Ki [3]: 0.02 µM
NS(=O)(=O)c1ccc(-n2cc(/C=N/Nc3nc(-c4cc5cc(Br)ccc5oc4=O)cs3)c(-c3ccc(Cl)cc3)n2)cc1 [B0302],1.362,,,Ki [2]: 0.023 µM
CC1=C[C@H](c2ccccc2)C=C(c2ccccc2)N1c1ccc(S(=O)(=O)Nc2nnc(S(N)(=O)=O)s2)cc1 [B0314],1.380,,,Ki [2]: 0.024 µM
Cc1ccc(-c2nn(-c3ccc(S(N)(=O)=O)cc3)cc2/C=N/Nc2nc(-c3cc4cc(Cl)ccc4oc3=O)cs2)cc1 [B0318],,1.380,0.024,
CCOc1ccc(S(=O)(=O)NCCO)cc1-c1nnc2c(n1)c(C)nn2-c1ccc(C)cc1 [B0321],,,,Ki [5]: 0.025 µM
NS(=O)(=O)c1ccc(CNC(=S)Nc2ccc(C3c4ccc(O)cc4Oc4cc(O)ccc43)c(C(=O)O)c2)cc1 [B0334],1.415,,,Ki [3]: 0.026 µM
CCCN(CCC)S(=O)(=O)c1ccc(C(=O)N[C@H](CO)C(=O)O)cc1 [B0340],,,,log10 of Ki in nM [7]: 1.431; Ki [8]: 0.027 µM
CCCN(CCC)S(=O)(=O)c1ccc(C(=O)N[C@H](CS)C(N)=O)cc1 [B0344],1.447,,,Ki [6]: 0.028 µM

Structure (SMILES),log10 of Ki in nM [1],log10 of Ki in nM,Ki (read-out: Ki) [µM],other results
CN1N[C@@H](S(N)(=O)=O)S[C@H]1NC(=O)c1c(F)c(F)c(F)c(F)c1F [B0350],,,,log10 of Ki in nM [4]: 1.462; Ki [5]: 0.029 µM
NS(=O)(=O)c1ccc(N[C@H]2SC[C@@H](c3ccc([N+](=O)[O-])cc3)N2C2CCCCC2)cc1 [B0353],1.462,,,Ki [6]: 0.029 µM
N#Cc1ccc(-c2cs/c(=N\c3ccc(S(N)(=O)=O)cc3)n2C2CCCCC2)cc1 [B0361],1.477,,,Ki [2]: 0.03 µM
CC1=C[C@@H](C)C(C)=C(C)N1Cc1ccc(S(N)(=O)=O)cc1 [B0397],1.544,,,Ki [2]: 0.035 µM
CC1(C)O[C@@H]2O[C@H]([C@@H]3COC(C)(C)O3)[C@@H](OS(N)(=O)=O)[C@@H]2O1 [B0417],,1.591,0.039,
Cc1ccc(-c2cnc(C(=O)N3CCCC3)o2)cc1S(N)(=O)=O [B0431],,,,Ki [5]: 0.043 µM
CC1C=C(C(C)C)N(Cc2ccc(S(N)(=O)=O)cc2)C(C(C)C)=C1 [B0461],1.732,,,Ki [3]: 0.054 µM
C[C@]12CC[C@H]3[C@@H]([C@H]1CCC2=O)[C@@H](O)C=C1C[C@@H](OS(N)(=O)=O)CC[C@]13C [B0490],,1.813,,Ki: 0.065 µM
CC(=O)OC[C@@H]1O[C@H](NS(=O)(=O)NO)C=C[C@H]1OC(C)=O [B0526],,1.898,0.079,
NS(=O)(=O)c1ccc(CCN2C(c3ccccc3)=CCC=C2c2ccccc2)cc1 [B0533],,,,log10 of Ki in nM [7]: 1.908; Ki [8]: 0.081 µM
CC1(C)O[C@H]2[C@H](CO[C@]3(CNC(=S)Nc4ccc(S(N)(=O)=O)cc4)OC(C)(C)O[C@H]23)O1 [B0536],,1.914,0.082,
NS(=O)(=O)c1ccc(-n2cc(CO[C@H]3O[C@H](CO)[C@H](O[C@H]4O[C@H](CO)[C@@H](O)[C@@H](O)[C@H]4O)[C@@H](O)[C@@H]3O)nn2)cc1 [B0542],,1.924,0.084,
NS(=O)(=O)c1ccc(N[C@H]2SC[C@H](c3ccc(F)cc3F)N2C2CCCCC2)cc1 [B0547],1.934,,,Ki [2]: 0.086 µM
CC(=O)OC[C@@H]1O[C@@H](SCc2nnn(-c3ccc(S(N)(=O)=O)cc3)c2I)[C@H](OC(C)=O)[C@@H](OC(C)=O)[C@@H]1OC(C)=O [B0581],,,,log10 of Ki in nM [7]: 1.978; Ki [8]: 0.095 µM
NS(=O)(=O)c1ccc(CCNS(=O)(=O)[C@@H]2O[C@@H](C(=O)O)[C@@H](O)[C@@H](O)[C@@H]2O)cc1 [B0584],1.982,,,Ki [6]: 0.096 µM
CC(=O)OC[C@@H]1O[C@H](SNCCc2ccc(S(N)(=O)=O)cc2)[C@@H](OC(C)=O)[C@H](OC(C)=O)[C@@H]1OC(C)=O [B0585],,1.987,0.097,
CC(=O)OC[C@@H]1O[C@@H](S(=O)(=O)Cc2nnn(-c3ccc(S(N)(=O)=O)cc3)c2I)[C@H](OC(C)=O)[C@@H](OC(C)=O)[C@@H]1OC(C)=O [B0586],,1.987,0.097,
CC1(C)O[C@H]2[C@H](CO[C@]3(CNC(=S)Nc4ccc(S(N)(=O)=O)cc4F)OC(C)(C)O[C@H]23)O1 [B0608],,2.041,0.11,
NS(=O)(=O)c1ccc(-c2cn([C@H]3O[C@H](CO)[C@@H](O)[C@@H](O)[C@H]3O)nn2)cc1 [B0619],,2.079,0.12,
NS(=O)(=O)c1ccc(-c2cn([C@@H]3O[C@@H](CO)[C@H](O)[C@@H]3O)nn2)cc1 [B0623],,2.083,0.121,
CC(=O)OC[C@@H]1O[C@H](O[C@@H]2[C@@H](OC(C)=O)[C@H](OC(C)=O)[C@H](n3cc(COC(=O)c4ccc(S(N)(=O)=O)cc4)nn3)O[C@@H]2COC(C)=O)[C@H](OC(C)=O)[C@H](OC(C)=O)[C@H]1OC(C)=O [B0633],,2.114,0.13,
Cc1cc(=O)oc2cc(O[C@H]3O[C@@H](C)[C@H](O)[C@H](O)[C@H]3O)ccc12 [B0671],,2.303,0.201,
COc1cc2c(cc1OC)[C@@H](c1ccc([N+](=O)[O-])cc1)N(S(N)(=O)=O)CC2 [B0740],2.681,,,Ki [2]: 0.48 µM
CC1=CC(C)C=C(C)N1CCc1ccccc1-c1ccccc1 [B0751],2.851,,,Ki [6]: 0.71 µM
